Laboratory results as given in patent publication US9598433B2, “Hepatitis C virus inhibitors” (BRISTOL-MYERS SQUIBB COMPANY, priority 2012, dated 2017).
Where two headings read alike, the source gives them in different places.

Columns and labels:
[1] = test system: HCV genotype 1a (H77 strain) replicon in HUH-7 cells; assay: HCV replicon luciferase reporter assay, genotype 1a; assay type: cell-based; conditions: Hepatitis C virus, 72 h, genotype 1a replicon, 3 days incubation
Summary of the method: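 Stable HUH-7 line carrying luciferase-reporter genotype 1a (H77) replicon with adaptive NS3 P1496L and NS5A S2204I mutations; 3.0×10^3 cells/well in 4% FCS, 0.5% DMSO, twenty-point 3-fold titration, 3 days at 37 °C. Renilla luminescence with 7.5 μM EnduRen; EC50 by four-parameter logistic fit; CC50 by multiplexed Cell Titer-Blue.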

[2] = test system: HCV genotype 1b (Con1) replicon in HUH-7 cells; assay: HCV replicon luciferase reporter assay, genotype 1b; assay type: cell-based; conditions: Hepatitis C virus, 72 h, genotype 1b replicon, 3 days incubation
Summary of the method: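 Replication was read as Renilla luciferase signal, using 7.5 μM EnduRen substrate with a 2-h incubation at 37 °C. The signal came from a HUH-7 line constitutively expressing a luciferase-tagged 1b (Con1) replicon carrying S1179I.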

SMILES | EC50 ([1]; read-out: LE_1a (EC50, range)) [nM] | EC50 ([2]; read-out: LE_1b (EC50, range)) [nM] | EC50 ([1]; read-out: LE_1a (EC50)) [nM] | EC50 ([2]; read-out: LE_1b (EC50)) [nM]
COc1cnc(O[C@@H]2C[C@H]3C(=O)N[C@]4(C(=O)NS(=O)(=O)C5(C)CC5)C[C@H]4/C=C\CO[C@@H](C)C[C@@H](C)[C@H](NC(=O)OC(C)(C)C)C(=O)N3C2)c2ccccc12 [Compound 2601, tert-butyl ((2R,6S,7R,9S,13aS,14aR,16aS,Z)-2-((4-methoxyisoquinolin-1-yl)oxy)-7,9-dimethyl-14a-(((1-methylcyclopropyl)sulfonyl)carbamoyl)-5,16-dioxo-2,3,5,6,7,8,9,11,13a,14,14a,15,16,16a-tetradecahydro-1H-cyclopropa[e]pyrrolo[2,1-i][1,7,10]oxadiazacyclopentadecin-6-yl)carbamate] | 1.01 to 5 | 1.01 to 5 | – | –
COc1ccc2c(O[C@@H]3C[C@H]4C(=O)N[C@]5(C(=O)NS(=O)(=O)C6CC6)C[C@H]5/C=C\CO[C@@H](C)C[C@@H](C)[C@H](NC(=O)OC(C)(C)C)C(=O)N4C3)nccc2c1 [Compound 2603, tert-butyl ((2R,6S,7R,9S,13a5,14aR,16aS,Z)-14a-((cyclopropylsulfonyl)carbamoyl)-2-((6-methoxyisoquinolin-1-yl)oxy)-7,9-dimethyl-5,16-dioxo-2,3,5,6,7,8,9,11,13a,14,14a,15,16,16a-tetradecahydro-1H-cyclopropa[e]pyrrolo[2,1-i][1,7,10]oxadiazacyclopentadecin-6-yl)carbamate] | 5.01 to 35 | 5.01 to 35 | 9.08 | 6.64
COc1ccc2c(O[C@@H]3C[C@H]4C(=O)N[C@]5(C(=O)NS(=O)(=O)C6CC6)C[C@H]5/C=C\CO[C@@H](C)C[C@@H](C)[C@H](NC(=O)OC(C)(C)C(F)(F)F)C(=O)N4C3)nccc2c1 [Compound 2604, 1,1,1-trifluoro-2-methylpropan-2-yl ((2R,6S,7R,9S,13aS,14aR,16aS,Z)-14a-((cyclopropylsulfonyl)carbamoyl)-2-((6-methoxyisoquinolin-1-yl)oxy)-7,9-dimethyl-5,16-dioxo-2,3,5,6,7,8,9,11,13a,14,14a,15,16,16a-tetradecahydro-1H-cyclopropa[e]pyrrolo[2,1-i][1,7,10]oxadiazacyclopentadecin-6-yl)carbamate] | 5.01 to 35 | 1.01 to 5 | – | –
CC[C@@H]1O[C@H](C)CC/C=C\[C@@H]2C[C@@]2(C(=O)NS(=O)(=O)C2(C)CC2)NC(=O)[C@@H]2C[C@@H](Oc3ncc(OC)c4ccc(F)cc34)CN2C(=O)[C@H]1NC(=O)OC(C)(C)C(C)(F)F [Compound 2605, 3,3-difluoro-2-methylbutan-2-yl ((2R,6S,7S,9R,13aS,14aR,16aS,Z)-7-ethyl-2-((7-fluoro-4-methoxyisoquinolin-1-yl)oxy)-9-methyl-14a-(((1-methylcyclopropyl)sulfonyl)carbamoyl)-5,16-dioxo-2,3,5,6,7,9,10,11,13a,14,14a,15,16,16a-tetradecahydro-1H-cyclopropa[i]pyrrolo[1,2-e][1,5,8]oxadiazacyclopentadecin-6-yl)carbamate] | 0.51 to 1 | 0.1 to 0.5 | – | –
CC[C@@H]1O[C@H](C)CC/C=C\[C@@H]2C[C@@]2(C(=O)NS(=O)(=O)C2(C)CC2)NC(=O)[C@@H]2C[C@@H](Oc3ncc(OC)c4ccc(F)cc34)CN2C(=O)[C@H]1NC(=O)OC(C)(C)C(F)(F)F [Compound 2606] | 0.51 to 1 | 0.1 to 0.5 | – | –
CCOc1cc2ccnc(O[C@@H]3C[C@H]4C(=O)N[C@]5(C(=O)NS(=O)(=O)C6(C)CC6)C[C@H]5/C=C\CC[C@@H](C)O[C@@H](CC)[C@H](NC(=O)OC(C)(C)C(C)(F)F)C(=O)N4C3)c2cc1F [Compound 2607, 3,3-difluoro-2-methylbutan-2-yl ((2R,6S,7S,9R,13 aS,14aR,16aS,Z)-2-((6-ethoxy-7-fluoroisoquinolin-1-yl)oxy)-7-ethyl-9-methyl-14a-(((1-methylcyclopropyl)sulfonyl)carbamoyl)-5,16-dioxo-2,3,5,6,7,9,10,11,13a,14,14a,15,16,16a-tetradecahydro-1H-cyclopropa[i]pyrrolo[1,2-e][1,5,8]oxadiazacyclopentadecin-6-yl)carbamate] | 0.51 to 1 | 0.1 to 0.5 | – | –
CCOc1cc2ccnc(O[C@@H]3C[C@H]4C(=O)N[C@]5(C(=O)NS(=O)(=O)C6(C)CC6)C[C@H]5/C=C\CC[C@@H](C)O[C@@H](CC)[C@H](NC(=O)OC(C)(C)C(F)(F)F)C(=O)N4C3)c2cc1F [Compound 2608, 1,1,1-trifluoro-2-methylpropan-2-yl ((2R,6S,7S,9R,13aS,14aR,16aS,Z)-2-((6-ethoxy-7-fluoroisoquinolin-1-yl)oxy)-7-ethyl-9-methyl-14a-(((1-methylcyclopropyl)sulfonyl)carbamoyl)-5,16-dioxo-2,3,5,6,7,9,10,11,13a,14,14a,15,16,16a-tetradecahydro-1H-cyclopropa[i]pyrrolo[1,2-e][1,5,8]oxadiazacyclopentadecin-6-yl)carbamate] | 0.51 to 1 | 0.1 to 0.5 | – | –
CC[C@@H]1O[C@H](C)CC/C=C\[C@@H]2C[C@@]2(C(=O)NS(=O)(=O)C2(C)CC2)NC(=O)[C@@H]2C[C@@H](Oc3nccc4c5c(ccc34)OCCO5)CN2C(=O)[C@H]1NC(=O)OC(C)(C)C(C)(F)F [Compound 2609, 3,3-difluoro-2-methylbutan-2-yl ((2R,6S,7S,9R,13aS,14aR,16aS,Z)-2-((2,3-dihydro-[1,4]dioxino[2,3-f]isoquinolin-7-yl)oxy)-7-ethyl-9-methyl-14a-(((1-methylcyclopropyl)sulfonyl)carbamoyl)-5,16-dioxo-2,3,5,6,7,9,10,11,13a,14,14a,15,16,16a-tetradecahydro-1H-cyclopropa[i]pyrrolo[1,2-e][1,5,8]oxadiazacyclopentadecin-6-yl)carbamate] | 1.01 to 5 | 0.51 to 1 | – | –
CC[C@@H]1O[C@H](C)CC/C=C\[C@@H]2C[C@@]2(C(=O)NS(=O)(=O)C2(C)CC2)NC(=O)[C@@H]2C[C@@H](Oc3nccc4c5c(ccc34)OCCO5)CN2C(=O)[C@H]1NC(=O)OC(C)(C)C(F)(F)F [Compound 2610, 1,1,1-trifluoro-2-methylpropan-2-yl ((2R,6S,7S,9R,13aS,14aR,16aS,Z)-2-((2,3-dihydro-[1,4]dioxino[2,3-f]isoquinolin-7-yl)oxy)-7-ethyl-9-methyl-14a-(((1-methylcyclopropyl)sulfonyl)carbamoyl)-5,16-dioxo-2,3,5,6,7,9,10,11,13a,14,14a,15,16,16a-tetradecahydro-1H-cyclopropa[i]pyrrolo[1,2-e][1,5,8]oxadiazacyclopentadecin-6-yl)carbamate] | 1.01 to 5 | 0.51 to 1 | – | –
CC[C@@H]1O[C@H](C)CC/C=C\[C@@H]2C[C@@]2(C(=O)NS(=O)(=O)C2(C)CC2)NC(=O)[C@@H]2C[C@@H](Oc3nccc4c5c(ccc34)OCCO5)CN2C(=O)[C@H]1NC(=O)OC(C)(C)C [Compound 2611, tert-butyl ((2R,6S,7S,9R,13aS,14aR,16aS,Z)-2-((2,3-dihydro-[1,4]dioxino[2,3-f]isoquinolin-7-yl)oxy)-7-ethyl-9-methyl-14a-(((1-methylcyclopropyl)sulfonyl)carbamoyl)-5,16-dioxo-2,3,5,6,7,9,10,11,13a,14,14a,15,16,16a-tetradecahydro-1H-cyclopropa[i]pyrrolo[1,2-e][1,5,8]oxadiazacyclopentadecin-6-yl)carbamate] | 1.01 to 5 | 0.51 to 1 | – | –
CC[C@@H]1O[C@H](C)CC/C=C\[C@@H]2C[C@@]2(C(=O)NS(=O)(=O)C2(C)CC2)NC(=O)[C@@H]2C[C@@H](Oc3nc(-c4ccc(OC(C)C)cn4)cc4cc(OC)ccc34)CN2C(=O)[C@H]1NC(=O)OC(C)(C)C(F)(F)F [Compound 2612, 1,1,1-trifluoro-2-methylpropan-2-yl ((2R,6S,7S,9R,13aS,14aR,16aS,Z)-7-ethyl-2-((3-(5-isopropoxypyridin-2-yl)-6-methoxyisoquinolin-1-yl)oxy)-9-methyl-14a-(((1-methylcyclopropyl)sulfonyl)carbamoyl)-5,16-dioxo-2,3,5,6,7,9,10,11,13a,14,14a,15,16,16a-tetradecahydro-1H-cyclopropa[i]pyrrolo[1,2-e][1,5,8]oxadiazacyclopentadecin-6-yl)carbamate] | 1.01 to 5 | 1.01 to 5 | – | –
CC[C@@H]1O[C@H](C)CC/C=C\[C@@H]2C[C@@]2(C(=O)NS(=O)(=O)C2(C)CC2)NC(=O)[C@@H]2C[C@@H](Oc3nc(-c4ccc(OC(C)C)cn4)cc4cc(OC)ccc34)CN2C(=O)[C@H]1NC(=O)OC(C)(C)C(C)(F)F [Compound 2613, 3,3-difluoro-2-methylbutan-2-yl ((2R,6S,7S,9R,13aS,14aR,16aS,Z)-7-ethyl-2-((3-(5-isopropoxypyridin-2-yl)-6-methoxyisoquinolin-1-yl)oxy)-9-methyl-14a-(((1-methylcyclopropyl)sulfonyl)carbamoyl)-5,16-dioxo-2,3,5,6,7,9,10,11,13a,14,14a,15,16,16a-tetradecahydro-1H-cyclopropa[i]pyrrolo[1,2-e][1,5,8]oxadiazacyclopentadecin-6-yl)carbamate] | 1.01 to 5 | 0.1 to 0.5 | – | –
CCOc1cc2ccnc(O[C@@H]3C[C@H]4C(=O)N[C@]5(C(=O)NS(=O)(=O)C6(C)CC6)C[C@H]5/C=C\CC[C@@H](C)O[C@@H](CC)[C@H](NC(=O)OC(C)(C)C(F)F)C(=O)N4C3)c2cc1F [Compound 2615, 1,1-difluoro-2-methylpropan-2-yl ((2R,6S,7S,9R,13 aS,14aR,16aS,Z)-2-((6-ethoxy-7-fluoroisoquinolin-1-yl)oxy)-7-ethyl-9-methyl-14a-(((1-methylcyclopropyl)sulfonyl)carbamoyl)-5,16-dioxo-2,3,5,6,7,9,10,11,13a,14,14a,15,16,16a-tetradecahydro-1H-cyclopropa[i]pyrrolo[1,2-e][1,5,8]oxadiazacyclopentadecin-6-yl)carbamate] | 0.51 to 1 | 0.51 to 1 | – | –
